The source of these data is patent US12497392B2, “EP300/CBP inhibitor” (HINOVA PHARMACEUTICALS INC., priority 2019, dated 2025).

pIC50: −log10 of the molar value. Like-named read-outs stand apart in the source and are kept apart here.

Assay [1] deals with CWR22RV1 cells. As to the kind of experiment: Proliferation of prostate cancer CWR22RV1 cells (CCK-8, 6 days). The format is cell-based. The protocol: (§1) • (1) CWR22RV1 prostate cancer cells were subcultured in cell culture medium, and well-grown cells were inoculated into 96-well plates with 80 μL per well and 1500 cells per well, and then the plate was cultured overnight at 37° C. in a 5% CO2 incubator. • (2) Drug was prepared as 30 mM of stock solution with dimethylsulfoxide (DMSO). Prior to use, the stock solution was diluted in a ratio of 1:3 with DMSO and then further diluted in a ratio of 1:3 to obtain 9 gradient concentrations. Each concentration of compound was diluted in a ratio of 1:200 with culture medium (to ensure the concentration of DMSO in the culture system was 0.1%). Two wells were set for each concentration. 20 μL of diluted compound solution was added to the cell culture well (with a final concentration of 10 μM, 3.3 μM, 1.1 μM, etc.), and then the plate was gently shaken to mix well. In addition, three negative control wells containing only cells and three blank control wells containing only culture medium (6 wells being each added with DMSO diluted in a ratio of 1:200 using 20 μL of culture medium) were included. 2. Test Results: • (1) After the plate was cultured for 6 days, 10 μL of CCK-8 was added to each well, and then the plate was continually cultured in a 5% CO2 incubator at 37° C. for 2.5 h. • (2) The absorbance (OD value) was measured at 450 nm with a microplate reader. • (3) Data were analyzed using the Dose-response-inhibition equation in the software GraphPad Prisms 6 to obtain IC50 values. 3. Experimental Results

Another assay has as its target CBP BRD (Homo sapiens (Human), UniProt Q92793). Description: CBP AlphaScreen bromodomain (BRD) binding test. How it is done: (§2) CBP and EP300AlphaScreen Test:
(§3) • 1. Prepare 1× concentration of test buffer • 2. Preparation of compound
(§4) The compound was firstly diluted in a ratio of 1:1000 relative to the final concentration using a Precision automatic sampler (by 3× gradient dilution method): • 1) 50 μL of compound solution with a storage concentration of 10 mM was transferred to A2 well of a 96-well plate using an Echo automatic sampler. • 2) 30 μL of DMSO was transferred to well A1, and wells A3 to A12 with Precision™. • 3) 15 μL solution was transferred from A2 to A3 by Precision, and this operation was sequentially repeated until 15 μL solution was transferred from well A10 to well A11. Thus, a 1:3 gradient dilution was completed. • 4) The compound plate was centrifuged at a speed of 1000 r/min for one minute. • 3. Preparation of test plate
(§5) 20 nL of solution was transferred from each concentration well of the compound plate to the test plate using an Echo automatic sampler: from well A1 of the preparation plate to wells A1 and A2 of the test plate, and from well A2 of the preparation plate to wells A3 and A4 of the test plate. • 4. Binding test of bromodomain (BRD) • 1) Preparation of 2-fold solution of protein and polypeptide
(§6) The protein and polypeptide were dissolved in a 1× concentration of detection buffer. • 2) 10 μL of protein and polypeptide solution was transferred to each well in columns 3 to 24 in the test plate, and 10 μL of 1× test buffer was transferred to wells in columns 1 to 2 in the test plate as negative control. • 3) The test plate was centrifuged at a speed of 1000 r/min for one minute. • 4) The test plate was incubated at room temperature for 15 min. • 5) A 2-fold receptor and donor solution was prepared by dissolving acceptor and donor beads with one-fold test buffer. • 6) 2-fold receptor and donor solutions were transferred to the test plate.
(§7) 15 μL of acceptor and donor solution was added and light was avoided. • 7) The test plate was centrifuged at a speed of 1000 r/min for one minute and then incubated at room temperature for 60 min. • 5. The Endpoints were Read in EnSpire and Alpha Modes. • 6. Curve fitting
(§8) The experimental data was entered into an Excel document and the inhibition rate Inh % was calculated using equation (1): Inh %=(Max−Signal)/(Max−Min)×100 Equation (1): wherein, Max: control containing DMSO, Min: low control containing DMSO,
(§9) The obtained data were entered into the XL-Fit software, and the IC50 value was calculated using equation (2): Y=Bottom+(Top−Bottom)/(1+10^((Log IC50−X)×Hill Slope)) Equation (2): II. Experimental Results
(In general: Alpha assays give light when donor and acceptor beads are brought close together.)

The target of another assay is EP300 BRD (Homo sapiens (Human), UniProt Q09472). As to the kind of experiment: EP300 AlphaScreen bromodomain (BRD) binding test. How it is done: as §2, §3, §4, §5, §6, §7, §8, §9
Sequence of EP300 BRD (Q09472 1049-1156): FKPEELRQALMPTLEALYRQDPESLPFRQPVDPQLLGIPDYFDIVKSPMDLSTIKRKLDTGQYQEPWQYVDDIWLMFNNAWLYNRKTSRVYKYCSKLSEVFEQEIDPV
For another assay, the system named is VCAP. Description: Proliferation of VCAP prostate cancer cells (CCK-8). In kind it is cell-based. The settings on record: prostate cancer cell line VCAP, read-out: IC50 against VCAP. How it is done:
as §1
(§10) Using the same method as in Example 2, CWR22RV1 cells were replaced with tumor cells in Table 3, and for the inhibitory activities against these tumor cells, the IC50 values (nM) of the compounds according to the present invention were tested and calculated.

For another assay, the system named is MCF-7. As to the kind of experiment: Proliferation of MCF-7 breast cancer cells (CCK-8). The format is cell-based. The settings on record: breast cancer cell line MCF-7, read-out: IC50 against MCF-7. The protocol: as §1, §10
The subject of the next assay is OPM-2. Description: Proliferation of OPM-2 multiple myeloma cells (CCK-8). In kind it is cell-based. The conditions noted are these: multiple myeloma cell line OPM-2, read-out: IC50 against OPM-2. The protocol: as §1, §10
Another assay concerns LNCAP-AR. As to the kind of experiment: Proliferation of LNCAP-AR prostate cancer cells (CCK-8). In kind it is cell-based. The settings on record: prostate cancer cell line LNCAP-AR; read-out: IC50 against LNCAP-AR. How it is done: as §1, §10
The next assay deals with MOLM-16. Description: Proliferation of MOLM-16 leukemia cells (CCK-8). The format is cell-based. The conditions noted are these: leukemia cell line MOLM-16, read-out: IC50 against MOLM-16. The protocol: as §1, §10
The test system of a further assay is LNCAP. As to the kind of experiment: Proliferation of LNCAP prostate cancer cells (CCK-8). The format is cell-based. The conditions noted are these: prostate cancer cell line LNCAP, read-out: IC50 against LNCAP. How it is done: as §1, §10
Assay [2] relates to CWR22RV1 cells. Description: Combination with CDK4/6 inhibitor palbociclib, proliferation of CWR22RV1 prostate cancer cells. In kind it is cell-based. The settings on record: CWR22Rv1, administrated alone; read-out: IC50 against CWR22RV1 cells. The protocol: (§11) Prior to use, the stock solution was diluted in a ratio of 1:3 with DMSO and then further diluted in a ratio of 1:3 to obtain 9 gradient concentrations. Each concentration of compound was diluted in a ratio of 1:200 with culture medium (to ensure the concentration of DMSO in the culture system was 0.1%). Two wells were set for each concentration. 20 μL of diluted compound solution was added to the cell culture well (with a final concentration of 10 μM, 3.3 μM, 1.1 μM, etc.); the stock solution of palbociclib was diluted with the culture medium as 500 nM, 150 nM, 50 nM, 5 nM, respectively, and then 20 μL of diluted palbociclib solution was added to the cell culture well ([…]). The plate was gently shaken to mix well. In addition, three negative control wells containing only cells and three blank control wells containing only culture medium (6 wells being each added with DMSO diluted in a ratio of 1:200 using 20 μL of culture medium) were included. 2. Test Results: • (1) After the plate was cultured for 6 days, 10 μL of CCK-8 was added to each well, and then the plate was continually cultured in a 5% CO2 incubator at 37° C. for 2.5 h. • (2) The absorbance (OD value) was measured at 450 nm with a microplate reader. • (3) Data were analyzed using the Dose-response-inhibition equation in the software GraphPad Prisms 6 to obtain IC50 values. 3. Experimental Results

The test system of the next assay is MCF-7 cells. Description: Combination with CDK4/6 inhibitor palbociclib, proliferation of MCF-7 breast cancer cells. The settings on record: Homo sapiens, MCF7, administrated alone; read-out: IC50 against MCF-7 cells. The format is cell-based. The protocol:
as §11
Using the same method as in Example 4, CWR22RV1 cells were replaced with MCF-7 cells, and for the inhibitory activities against the proliferation of MCF-7 cells, the IC50 values (nM) of the compounds according to the present invention, palbociclib, and the combination of the compound according to the present invention and palbociclib were tested and calculated.

[3] abbreviates: CWR22Rv1, 144 h, 6 days, CCK-8, class symbols, read-out: IC50 against CWR22RV1 cells.

Sequence of CBP BRD (Q92793 1085-1192): as the sequence (Q09472 1049-1156) above, with S47N, I73V, Y93F, S98A counted along it

Broadly, the pIC50 is the IC50 on a negative log10 scale, so that one unit is a factor of ten. `COc1cccc(-c2nc3cc(-c4c(C)noc4C)ccc3n2[C@H]2CC[C@H](OC)CC2)c1-c1ccc(F)cc1` [Compound 141]: the values for the pIC50 with CWR22RV1 cells [1] (setting [3]), on CBP BRD and at EP300 BRD were less than 5.70, 7.66 and 8.02, respectively.

On to `CO[C@H]1CC[C@H](n2c([C@H]3COCC(=O)N3c3ccc(F)c(F)c3)nc3cc(-c4c(C)noc4C)ccc32)CC1` [Compound 112, (S)-4-(3,4-difluorophenyl)-5-(5-(3,5-dimethylisoxazol-4-yl)-1-((trans)-4-methoxycyclohexyl)-1H-benzo[d]imidazol-2-yl)morphine-3-one], for which the pIC50 in the assay on CWR22RV1 cells [1] (CWR22Rv1, 144 h, read-out: IC50 against CWR22RV1 cells) is greater than 6.30; with CWR22RV1 cells [1] (CWR22Rv1, 144 h, read-out: IC50 against CWR22RV1 prostate cancer cells), greater than 6.30; on CBP BRD, 8.70; on EP300 BRD it was 8.77.

Regarding `CO[C@H]1CC[C@H](n2c([C@@H]3CCOCC(=O)N3c3ccc(F)c(F)c3)nc3cc(-c4c(C)noc4C)ccc32)CC1` [Compound 106], the pIC50 is 5.70 to 6.30 in the assay with CWR22RV1 cells [1] (setting [3]), 8.32 at CBP BRD and 8.66 at EP300 BRD.

For `CO[C@H]1CC[C@H](n2c([C@@H]3CCOC(=O)N3c3ccc(Cl)c(F)c3)nc3cc(-c4c(C)noc4C)ccc32)CC1` [Compound 117, (S)-3-(3-fluoro-4-chlorophenyl)-4-(5-(3,5-dimethylisoxazol-4-yl)-1-((trans)-4-methoxycyclohexyl)-1H-benzo[d]imidazol-2-yl)-1,3-oxazinane-2-one], the pIC50 was greater than 6.30 in the assay on VCAP (Homo sapiens); greater than 6.30 with CWR22RV1 cells [1] (CWR22Rv1, 144 h, 6 days, CCK-8, bound stated, read-out: IC50 against CWR22RV1 prostate cancer cells); greater than 6.30 in the assay on CWR22RV1 cells [1] (setting [3]); greater than 6.30 with MCF-7 (Homo sapiens, MCF7); 9.15 at CBP BRD; greater than 6.30 in the assay on OPM-2 (Homo sapiens). Besides, the pIC50 in the assay on LNCAP-AR is greater than 6.30; in the assay on MOLM-16 (MOLM16), greater than 6.30; in the assay with LNCAP (Homo sapiens) it was greater than 6.30; at EP300 BRD, 9.14.

With `CC(=O)c1c(C)c2cnc(Nc3ccc(N4CCNCC4)cn3)nc2n(C2CCCC2)c1=O` [palbociclib, reference compound], the negative logarithm of the IC50 (pIC50) in the assay with CWR22RV1 cells [2] is 7.00; with MCF-7 cells, 4.89.

Take `CO[C@H]1C[C@@H](n2c([C@@H]3CCOC(=O)N3c3ccc(F)c(F)c3)nc3cc(-c4c(C)noc4C)ccc32)C1` [Compound 143]: the results for the negative logarithm of the IC50 (pIC50) in the assay on CWR22RV1 cells [1] (setting [3]), at CBP BRD and on EP300 BRD were 5.70 to 6.30, 8.33 and 8.57, respectively.

With “(S)-4-(3,4-difluorophenyl)-5-(5-(3,5-dimethylisoxazol-4-yl)-1-((trans)-4-deuteromethoxycyclohexyl)-1H-benzo[d]imidazol-2-yl)morphine-3-one [Compound 113]”, the pIC50 is greater than 6.30 with VCAP; greater than 6.30 in the assay with CWR22RV1 cells [1] (6 days, CCK-8, bound stated, read-out: IC50 against CWR22RV1 prostate cancer cells); greater than 6.30 in the assay with CWR22RV1 cells [1] (6 days, CCK-8, class symbols, read-out: IC50 against CWR22RV1 cells); greater than 6.30 in the assay with MCF-7; greater than 6.30 in the assay with OPM-2; greater than 6.30 in the assay on LNCAP-AR. In addition, the pIC50 in the assay on MOLM-16 and with LNCAP was greater than 6.30 each time.

For `CCO[C@H]1CC[C@H](n2c([C@@H]3CCOC(=O)N3c3ccc(F)c(F)c3)nc3cc(-c4c(C)noc4C)ccc32)CC1` [Compound 171, (S)-3-(3,4-difluorophenyl)-4-(5-(3,5-dimethylisoxazol-4-yl)-1-((trans)-4-ethoxycyclohexyl)-1H-benzo[d]imidazol-2-yl)-1,3-oxazinane-2-one], the pIC50 is greater than 6.30 in the assay with VCAP (Homo sapiens); 5.70 to 6.30 in the assay on CWR22RV1 cells [1] (setting [3]); greater than 6.30 in the assay with MCF-7 (Homo sapiens, MCF7); 8.74 on CBP BRD; greater than 6.30 in the assay with OPM-2 (Homo sapiens); greater than 6.30 in the assay with LNCAP-AR. The pIC50 with MOLM-16 (MOLM16) was greater than 6.30; in the assay on LNCAP (Homo sapiens), greater than 6.30; on EP300 BRD, 8.62.
